For orientation: Kd means the constant that tells how readily two partners part at equilibrium.

Among the data in article PMC11555401 (2024) are binding and Kd values, retold here.

For test [1], the system named is aptamer-Seq.10-Cy5 (csa-DEHP aptamer) (DNA, aptamer) TTCCGGGCATACGTATCGAATGTTGTGAGCCGTGGGCTGC
Description: 1H NMR. Conditions: complex formed in deionized water at 4 °C overnight, dialyzed; amino signals shift 1.9 to 2.3 ppm.

Test [2] has as its system DEHP aptamer-Seq.10 (FAM-labeled) (DNA, aptamer) TTCCGGGCATACGTATCGAATGTTGTGAGCCGTGGGCTGC
Description: graphene oxide fluorescence assay. Conditions: 37 °C, 1.5 h incubation; graphene oxide:ssDNA mass ratio 100:1; nonlinear regression.

For `CCCCC(CC)COC(=O)c1ccccc1C(=O)OCC(CC)CCCC` (centres unmarked), the binding result in test [1] is listed as “yes”. Besides, in test [2], the Kd was determined as 0.07 µM.
